# Source: patent US20140088056A1, “CARDIAC GLYCOSIDES ARE POTENT INHIBITORS OF INTERFERON-BETA GENE EXPRESSION” (priority 2010, published 2014)
# Key:
# [1] = system: patients; details: huachansu, Meng et al.; cited from earlier work
# [2] = system: 293T cells; assay: Intracellular sodium concentration measurement (SBFI) in 293T cells; type: cell-based, human; details: 1 μM, 30 minutes; from about 20 mM without
# Description: Bound RIG-I protein was analyzed by western blot (top panel). The expression of IFNβ and Cxcl 10 genes in these cells was also analyzed by RT-PCR (bottom panel). FIG. 3B, high salt concentration inhibits RIG-I helicase activities while the effect on RNA binding is minor. Recombinant RIG-I protein was incubated with dsRNA (67 bp) in the presence of increasing NaCl and KCl concentrations. RNA binding was monitored by native agarose gel analysis (top panel). For the ATPase activities, samples were adjusted to 1 mM ATP and further incubated for 15 min at 37° C., free phosphate released was measured with BIOMOL GREEN reagent. The image of the plate was shown in the bottom panel, and signals from the reading were quantified and graphed in the middle panel. The lanes of the gel, bars of the graph and wells in the ATPase assay are aligned according to experimental conditions. […] 293T cells were loaded with 10 μM SBFI-AM in the presence of 0.02% Pluronic F-127 for 1 hour at 37° C. […] To generate the standard curve, SBFI-Am loaded cells were exposed to solutions with increasing concentrations of sodium in the presence of 10 μM gramicidin for 30 minutes at 37° C. and 340/380 nm fluorescence ratio determined. […]
# [3] = system: LPS signaling; assay: LPS induced gene expression in THP-1 cells; type: cell-based, human; details: 1 μM
# Description: (§1) Total RNA or protein were harvested for the expression analysis of specific genes by RT-PCR or Western blot.
# (§2) Specifically, the inventors tested interferon (IFN), tumor necrosis factor (TNF), epidermal growth factor (EGF) signaling, and treatment with lipopolysacchoride (LPS).
# [4] = system: virus; assay: Virus replication; type: cell-based
# [5] = system: PRDIII/I element of the IFNβ promoter; type: cell-based, human; details: 1 uM, compared with no drug treatment
# Description: (§3) 293T cells were transfected with the IFNβ promoter driving a firefly luciferase reporter together a reference renilla luciferase reporter plasmid. […] Firefly luciferase activities were measured after another 24 hrs and normalized to that of renilla activities. […] Experiments were conducted same as in A, but PRDIV, PRDIII/I and PRDII driving luciferase reporter plasmids were used instead.
# [6] = system: Namalwa cells; assay: RT-PCR of virus induced IFNβ gene expression in Namalwa cells; type: cell-based, human
# Description: (§4) 6 hrs later, cells were harvested and RNA extracted for RT-PCR analysis for the expression of various genes.
# [7] = system: IFNβ and CXCL10 gene expression; assay: RT-PCR of dsRNA (poly I:C) and dsDNA (poly dA:dT) induced gene expression in 293T cells; type: cell-based, human; details: 1 uM, 6 hrs
# [8] = system: cytoplasmic RNA polymerase III; assay: Re-transfection of RNA from dsDNA transfected, bufalin treated 293T cells; type: cell-based, human
# Description: Total RNA from these cells were extracted and re-transfected into fresh 293T cells (8 ug for 2 million cells) for 6 hrs, the induction of IFNβ and Cxcl10 genes from these samples were analyzed by RT-PCR.
# Furthermore, RIG-I can also be the target in the dsDNA activation pathway. […] This was achieved through a critical sensor: RNA polymerase III, which transcribes 5′-ppp bearing “panhandle” RNA from the dsDNA template, these nascent RNAs then activated the IFNb expression through the RIG-1-MAVS pathway. See, for example, Ablasser, A. et al. RIG-I-dependent sensing of poly(dA:dT) through the induction of an RNA polymerase III-transcribed RNA intermediate. Nat Immunol 10, 1065-72 (2009) and Chiu, Y. H., Macmillan, J. B. & Chen, Z. J. RNA polymerase III detects cytosolic DNA and induces type I interferons through the RIG-I pathway. Cell 138, 576-91 (2009), content of both of which is herein incorporated by reference.
# [9] = system: IFNβ promoter; assay: cells; type: cell-based, human
# Description: 293T cells were transfected with the IFNβ promoter driving a firefly luciferase reporter together a reference renilla luciferase reporter plasmid. […] Firefly luciferase activities were measured after another 24 hrs and normalized to that of renilla activities.
# 293T cells were transfected with an IFNβ promoter driving luciferase reporter, 24 hrs later, increasing amounts (10 nM to 10 uM) of Ouabain (FIG. 8A) or digoxin (FIG. 8B) were added to cells before the Sendai virus infection. Luciferase activities were measured one day later.
# Approximately 40,000 293T cells were seeded in a 96 well plate, and co-transfected with IFNβ-110 firefly luciferase reporter and renilla luciferase plasmids (Fitzgerald, K. A. et al. IKKepsilon and TBK1 are essential components of the IRF3 signaling pathway. Nat Immunol 4, 491-6 (2003)). After 24 hrs, cells were treated with various chemicals at the indicated concentrations, and sendai virus infection was initiated one hour later. After another 24 hrs, cells were lysed and subjected to Dual-Glo luciferase assay analysis (Promega) with an Analyst AD plate reader.
# Human 293T cells were transfected with the IFNβ promoter driving the expression of luciferase construct. The cells were treated with a library of chemical compounds, and sendai virus (SeV) infection initiated one hour later. Luciferase activity was measured after another 24 hrs of culture. Signals were normalized to the samples not treated with chemicals.
# [10] = system: PRDIV element of the IFNβ promoter; type: cell-based, human; details: absence of virus infection
# Description: as §3
# [11] = system: PRDII element of the IFNβ promoter; type: cell-based, human; details: 1 uM, compared with no drug treatment
# Description: as §3
# [12] = system: Hela and MG63 cells; assay: RT-PCR of IFNβ gene induction in Hela and MG63 cells; type: cell-based, human
# Description: as §4
# [13] = system: MAP kinase P42/p44; assay: EGF induced phosphorylation of MAP kinase in 293T cells; type: cell-based, human; details: 1 μM
# Description: as §1, §2
# [14] = system: PRDII element (NFkB binding site); type: cell-based, human; details: bufalin and TNF 24 hrs
# [15] = system: 293T cells; assay: CellTiter-Blue and CellTiter-Glo viability assays; type: cell-based, human; details: 1 nM to 10 μM, 8 hours
# Description: The cells were also exposed to 0.1% Triton X-100 for 1 hr before the viability assay as a control (FIG. 16E). Data represent mean values±s.d. (n=3). […] Cells were harvested and washed, then stained with Allophycocyanin (APC) conjugated Annexin V and 7-AAD for 15 minutes and subjected to flow cytometry analysis. The number in each graph is the percentile of Annexin V or 7-AAD positive populations. […] Total protein lysates were prepared and separated on SDS-PAGE for Western blot analysis of PARP1, cleaved PARP1, cleaved Caspase3, LC3B, ATP1a1, and beta-actin expression.
# 8 hours later, 20 μl of the CellTiter-Blue reagent (Promega) was added to each well and incubated for two more hours at 37° C. Fluorescence was recorded from 560 nm excitation/590 nm emission with a Spectramax Plus 384 plate reader. For CellTiter-Glo Luminescent viability assay, […] reagent (Promega) was added to each well and mixed, and incubated for 10 minutes at room temperature. Luminescence was measured with an Analyst AD plate reader.
structure (smiles),measurement,setting,value
C[C@]12CC[C@H](O)C[C@H]1CC[C@@H]1[C@H]2CC[C@]2(C)[C@@H](c3ccc(=O)oc3)CC[C@]12O [Bufalin],well tolerated concentration of bufalin in patients,[1],up to 9 nM
same,intracellular sodium concentration,[2],over 120 mM
same,"LPS induction of Il-8, TNF and IKBa",[3],minimal
same,LPS induced expression of Cxcl10 gene,"[3]; LPS 20 ng/ml, 2 hours",impaired
same,virus replication,[4],inhibited
same,"repression of viral induction of luciferase expression, PRDIII/I reporter",[5],> 86%
same,virus-induced IFNβ gene expression in Namalwa cells,[6],Strong inhibition
same,IFNβ and CXCL10 gene expression in response to poly I:C and poly dA:dT,[7],strongly inhibited
same,activity of cytoplasmic RNA polymerase III,[8],inhibited
same,inhibition of IFNβ expression,[9]; 1 uM,more than 90%
same,Inhibition % @ 10 μM of virus induced IFNβ expression,"[9]; 10 μM, chemical library screen",99.2%
same,IFN expression in the absence of virus infection,"[9]; 1 and 10 uM, no virus",weakly induced
same,IC50,"[9]; Homo sapiens, HEK-293T, read-out: IC50 for inhibition of virus induced IFNβ expression",4.3 nM
same,activity of PRDIV reporter,[10],weakly induced
same,"repression of viral induction of luciferase expression, PRDII reporter",[11],> 86%
same,poly I:C and poly dA:dT induced IFNβ expression in Hela and Mg63 cells,[12],strongly inhibited
same,virus induced IFNβ expression in Hela and MG63 cells,[12],less than observed with 293T and Namalwa cells
same,EGF induced phosphorylation of MAP kinase P42/p44,[13],no effect
same,decrease of TNF induced luciferase gene expression,[14],40%
same,cell viability,[15],did not severely impair
